We go through five molecules from patent US11795218B2, “Diagnosis and therapy of cancer involving cancer stem cells” (BioNTech AG, priority 2014, dated 2023).

For experiment [1], the system named is human NEC14 xenograft tumors. Kind of experiment: Advanced NEC14 subcutaneous xenograft tumor model, IMAB027 with cisplatin or carboplatin. Particulars: advanced s.c. NEC14 xenograft; cisplatin 1 mg/kg i.p. day 6-10; carboplatin 30 mg/kg i.p. day 6, 13, 20; IMAB027 35 mg/kg three times a week from day 6. The format is in vivo, mice.
Procedure: Subcutaneous human NEC14 xenograft tumors were grown to a median size of ˜100 mm^3 before the beginning of the treatment. Mice were treated with 1 mg/kg cisplatin by i.p. injections daily from day 6 to 10 post engraftment and with three 35 mg/kg IMAB027 injections per week (alternating i.v./i.p./i.p.) starting on day 6 as maintenance therapy. […] The arrow marks the time point of therapy start. (B) Individual tumor size in mice at day 24 post graft (mean with ±standard diviation). (C) Survival curves of treated mice. Group size: n=19. P-values: *, p<0.05; **, p<0.01 and ***, p<0.001.
Instead of cisplatin, mice were treated with 30 mg/kg carboplatin on days 6, 13 and 20 by bolus i.p. injections. […] The arrow marks the time point of therapy start. (B) Individual tumor size in mice at day 24 post graft (mean with ±standard diviation). (C) Survival curves of treated mice. Group size: n=19. P-values: *, p<0.05; **, p<0.01 and ***, p<0.001. […]
For treatment of advanced human NEC14 xenograft tumors the human testicular germ cell tumor cell line NEC14 was cultivated according to the instructions of the supplier in RPMI 1640 medium GlutaMAX™ (Life Technologies) containing 10% FCS (Life Technologies) at 3TC in a humidified incubator with 5% CO2. […] Tumor burden were monitored twice a week. […] Inhibition of tumor growth was analyzed using the Kruskal-Wallis test and the post-hoc Dunn's multiple comparison test.
Experiment [2] deals with COV362(Luc) cells. The experiment in a line: CLDN6 surface expression on COV362(Luc) cells after pretreatment with cytostatic agents (flow cytometry). The format is cell-based, human. Conditions: 4 days drug (5 ng/ml paclitaxel, 20 μg/ml carboplatin, 25 ng/ml gemcitabine, 20 ng/ml doxorubicin, 7.5 ng/ml topotecan), then 3 or 10 days without drug. The protocol:
ADCC activity of IMAB027 in combination with chemotherapy was analyzed using COV362(Luc) target cells. Therefore, cells were treated for 4 days with carboplatin, gemcitabine, paclitaxel, doxorubicin or topotecan at indicated concentrations. After treatment, cells were grown for 3 (A-D) and 10 days (E-J) in the absence of cytostatic drugs, respectively. Control cells were cultured without cytostatics. (A, C, E, G, I) ADCC experiments were performed with IMAB027 (black lines) or an isotype control antibody (grey lines) using PBMC from healthy donors at an effector (PBMC) to target cell ratio of ˜40:1. Data points (n=4 replicates) are depicted as mean±SD. (B, D, F, H, J) Expression of CLDN6 was analyzed by flow cytometry using IMAB027.
The cells were washed twice and resuspended in FACS buffer. The binding was analysed by flow cytometry using a BD FACSArray (BD Biosciences) and FlowJo software (Tree Star Inc.). The live/dead dye propidium iodide (Sigma, P4864) was used to exclude dead cells from the analysis.
The human ovarian carcinoma cell line COV362 stably transfected with luciferase as a reporter was used to determine the influence of carboplatin and paclitaxel on IMAB027-mediated ADCC. COV362(Luc) cells (3×10^6 cells per 150 mm cell culture dish) were grown under standard conditions. After 24 h, cells were treated with 5 ng/ml paclitaxel, 20 μg/ml carboplatin, 25 ng/ml gemcitabine, 20 ng/ml doxorubicin or 7.5 ng/ml topotecan and incubated for 4 days. The medium was changed and the treated cells were grown under standard growth conditions for further 3 days for carboplatin and gemcitabine or 10 days for paclitaxel, doxorubicin or topotecan.
In general terms: Flow cytometry measures light scatter and fluorescence of single cells or particles in a stream.

In experiment [3] the test system is human ES-2(CLDN6) xenograft tumors. Kind of experiment: Early ES-2(CLDN6) subcutaneous xenograft tumor model, IMAB027 with paclitaxel. Particulars: s.c. ES-2(CLDN6) xenograft; paclitaxel 15 mg/kg i.p. day 3, 10, 17; IMAB027 35 mg/kg three times a week from day 4; vs control group. It is filed as in vivo, mice.
Procedure: Subcutaneous human ES-2 xenograft tumors ectopically expressing human CLDN6 were treated with 15 mg/kg paclitaxel on day 3, 10 and 17 post graft by i.p. injections. Antibody maintenance therapy started on day 4 with three 35 mg/kg IMAB027 injections per week (alternating i.v./i.p./i.p.).
Hsd:Athymic Nude-Foxn1^nu mice were engrafted with human cancer cell lines. […] The control group received antibody buffer (vehicle control).
Specifically, for treatment of human ES-2(CLDN6) xenograft tumors, the human ovarian carcinoma cell line ES-2 stably transfected with human CLDN6 was cultivated in Minimum Essential Media (Life Technologies) containing 1 x non-essential amino acids solution (Life Technologies), 700 μg/ml G418 (Life Technologies) and 10% FCS (Life Technologies) at 3TC in a humidified incubator with 5% CO2. For engraftment, 6 week-old female Hsd:Athymic Nude-Foxn1^nu mice were subcutaneously inoculated with 5×10^6 ES-2(CLDN6) cells in 200 μl PBS into the flank. On day 3 post subcutaneous tumor inoculation, mice were treated with either saline control, antibody or chemotherapeutic drug monotherapy and antibody/cytostatic drug combination therapy groups (n=12 per group). […] Tumor burden and animal health were monitored twice a week. […] Inhibition of tumor growth was analyzed using the Kruskal-Wallis test and the post-hoc Dunn's multiple comparison test.

Structures can show the parent of a compound that is named as a salt.

Consider `N.N.[Cl][Pt][Cl]` [cisplatin, cis-diamminedichloroplatinum(II)], for which, in experiment [1], the “tumor growth / anti-tumoral efficacy” value is recorded as “highly significantly reduce tumor growth”.

Regarding `COc1cccc2c1C(=O)c1c(O)c3c(c(O)c1C2=O)C[C@@](O)(C(=O)CO)C[C@@H]3O[C@H]1C[C@H](N)[C@H](O)[C@H](C)O1` [doxorubicin], the “protein levels of CLDN6 on the cell surface after pretreatment” value (“protein levels of CLDN6” below) in experiment [2] is “increased protein levels of CLDN6 on the cell surface”.

Turning to `Nc1ccn([C@@H]2O[C@H](CO)[C@@H](O)C2(F)F)c(=O)n1` [gemcitabine, 4-amino-1-(2-deoxy-2,2-difluoro-β-D-erythro-pentofuranosyl)pyrimidin-2 (1H)-one], the “protein levels of CLDN6” value in experiment [2] is “increased protein levels of CLDN6 on the cell surface”.

Take `CC(=O)O[C@H]1C(=O)[C@@]2(C)[C@H]([C@H](OC(=O)c3ccccc3)[C@]3(O)C[C@H](OC(=O)[C@H](O)[C@@H](NC(=O)c4ccccc4)c4ccccc4)C(C)=C1C3(C)C)[C@]1(OC(C)=O)CO[C@@H]1C[C@@H]2O` [paclitaxel, (2α,4α,5β,7β,10β,13α)-4,10-bis-(acetyloxy)-13-{[(2R,3S)-3-(benzoylamino)-2-hydroxy-3-phenylpropanoyl]oxy}-1,7-dihydroxy-9-oxo-5,20-epoxytax-11-en-2-yl benzoate]: the “tumor growth / anti-tumoral activity” value in experiment [3] is on record as “does not show anti-tumoral activity”. Further, the “protein levels of CLDN6” value in experiment [2] was “increased protein levels of CLDN6 on the cell surface”.

On to `CC[C@@]1(O)C(=O)OCc2c1cc1n(c2=O)Cc2cc3c(CN(C)C)c(O)ccc3nc2-1` [topotecan, (S)-10-[(dimethylamino)methyl]-4-ethyl-4,9-dihydroxy-1H-pyrano[3′,4′:6,7]indolizino[1,2-b]quinoline-3,14(4H,12H)-dione monohydrochloride], for which the “protein levels of CLDN6” value in experiment [2] was “increased protein levels of CLDN6 on the cell surface”.
